In PMC3661511, “Impact of Glucocorticoid Receptor Density on Ligand-Independent Dimerization, Cooperative Ligand-Binding and Basal Priming of Transactivation: A Cell Culture Model” (PLoS ONE, 2013):
Where two headings read alike, the source gives them in different places.

T1: GRwt (Homo sapiens, UniProt P04150)
T1 sequence (P04150 1-777): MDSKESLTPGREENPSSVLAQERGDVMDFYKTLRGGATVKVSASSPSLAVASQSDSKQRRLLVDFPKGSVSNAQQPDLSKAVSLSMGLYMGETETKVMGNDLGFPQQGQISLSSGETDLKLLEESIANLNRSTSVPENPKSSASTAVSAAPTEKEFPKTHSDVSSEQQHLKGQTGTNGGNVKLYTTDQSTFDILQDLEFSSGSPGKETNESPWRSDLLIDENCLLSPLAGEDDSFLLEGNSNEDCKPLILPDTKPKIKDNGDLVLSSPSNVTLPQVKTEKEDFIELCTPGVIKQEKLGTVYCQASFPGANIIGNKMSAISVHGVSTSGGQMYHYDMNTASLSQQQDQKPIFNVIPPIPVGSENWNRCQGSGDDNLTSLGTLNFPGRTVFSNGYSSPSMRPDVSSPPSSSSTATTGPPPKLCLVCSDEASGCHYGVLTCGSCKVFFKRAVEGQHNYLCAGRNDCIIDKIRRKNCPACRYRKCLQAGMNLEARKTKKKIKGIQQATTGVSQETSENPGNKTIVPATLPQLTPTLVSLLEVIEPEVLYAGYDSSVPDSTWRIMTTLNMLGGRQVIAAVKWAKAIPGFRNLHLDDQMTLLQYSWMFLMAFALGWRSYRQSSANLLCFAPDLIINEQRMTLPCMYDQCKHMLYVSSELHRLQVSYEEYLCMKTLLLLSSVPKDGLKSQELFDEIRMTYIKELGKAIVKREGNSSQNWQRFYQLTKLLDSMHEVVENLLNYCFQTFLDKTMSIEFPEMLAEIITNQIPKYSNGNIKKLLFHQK

T2: GRdim (Homo sapiens, UniProt P04150, A458T)
T2 sequence (P04150 1-777 A458T): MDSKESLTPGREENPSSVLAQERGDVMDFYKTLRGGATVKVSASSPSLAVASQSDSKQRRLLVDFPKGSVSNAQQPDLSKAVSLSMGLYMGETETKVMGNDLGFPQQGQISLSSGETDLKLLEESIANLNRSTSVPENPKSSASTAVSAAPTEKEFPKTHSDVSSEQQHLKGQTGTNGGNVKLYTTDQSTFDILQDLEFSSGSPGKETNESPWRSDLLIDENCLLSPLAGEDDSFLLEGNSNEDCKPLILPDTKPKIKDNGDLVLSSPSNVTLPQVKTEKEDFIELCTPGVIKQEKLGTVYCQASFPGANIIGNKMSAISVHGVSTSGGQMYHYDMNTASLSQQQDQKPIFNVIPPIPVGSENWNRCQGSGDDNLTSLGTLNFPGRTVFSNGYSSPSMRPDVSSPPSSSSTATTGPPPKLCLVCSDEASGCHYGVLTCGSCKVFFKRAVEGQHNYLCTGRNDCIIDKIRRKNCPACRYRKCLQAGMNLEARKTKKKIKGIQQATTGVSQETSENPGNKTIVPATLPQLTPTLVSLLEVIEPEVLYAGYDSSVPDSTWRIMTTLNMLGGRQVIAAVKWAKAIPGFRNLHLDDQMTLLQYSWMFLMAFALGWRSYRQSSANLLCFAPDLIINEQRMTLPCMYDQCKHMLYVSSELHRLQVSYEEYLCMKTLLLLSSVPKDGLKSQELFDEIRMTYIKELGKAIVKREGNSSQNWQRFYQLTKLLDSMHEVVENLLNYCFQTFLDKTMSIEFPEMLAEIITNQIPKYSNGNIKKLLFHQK

T3: Flag-tagged human glucocorticoid receptor alpha, wild type (pEFFlaghGRα) (human, UniProt P04150 1-777)
T3 construct: glucocorticoid receptor alpha (hGRα), human, wild type; construct pEFFlaghGRα, molecular mass 96 kDa as printed; also called Flag-GR; Flag-GRwt; source: COS-1, transiently transfected (DEAE-dextran), in lysate
T3 sequence (looked up): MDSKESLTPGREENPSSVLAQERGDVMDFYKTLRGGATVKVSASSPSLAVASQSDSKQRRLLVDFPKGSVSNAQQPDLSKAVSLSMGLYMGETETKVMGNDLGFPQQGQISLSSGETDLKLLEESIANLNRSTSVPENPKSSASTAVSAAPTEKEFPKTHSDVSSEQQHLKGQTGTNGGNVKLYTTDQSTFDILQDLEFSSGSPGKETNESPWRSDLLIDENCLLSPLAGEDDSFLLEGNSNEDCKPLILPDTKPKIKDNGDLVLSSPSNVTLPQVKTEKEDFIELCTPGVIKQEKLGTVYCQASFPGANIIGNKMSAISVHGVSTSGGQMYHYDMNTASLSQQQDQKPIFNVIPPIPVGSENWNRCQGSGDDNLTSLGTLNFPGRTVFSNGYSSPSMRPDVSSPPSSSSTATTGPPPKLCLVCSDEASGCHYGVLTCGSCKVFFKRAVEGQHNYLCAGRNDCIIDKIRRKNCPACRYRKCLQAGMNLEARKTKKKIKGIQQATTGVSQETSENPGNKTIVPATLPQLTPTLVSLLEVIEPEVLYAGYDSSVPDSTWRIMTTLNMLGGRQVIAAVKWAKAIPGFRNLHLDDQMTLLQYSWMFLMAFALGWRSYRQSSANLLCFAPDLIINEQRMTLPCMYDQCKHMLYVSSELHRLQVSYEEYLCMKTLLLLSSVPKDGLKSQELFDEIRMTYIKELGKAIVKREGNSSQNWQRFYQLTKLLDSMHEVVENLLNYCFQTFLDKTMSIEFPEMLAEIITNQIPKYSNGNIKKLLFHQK


Experiments:
[1] = biological target: T1, GRwt; test: Promoter-reporter transactivation (pTAT-GRE2-E1b-luc) in COS-1 cells, GRwt; format: cell-based; details: for EC50: read-out: Potency (log EC50) (converted)
Experimental: (§1) Cells were transfected with low, medium or high GRwt, low or medium GRdim and 3000 ng pTAT-GRE2-E1b-luc filled to 14550 ng total plasmid with empty vector. Cells were replated 24 h later into 96-well plates (4×10^4 cells/well) in charcoal-stripped DMEM. […] Cells were lysed with 30 µl of passive lysis buffer (Promega), and subjected to a freeze thaw cycle. Luciferase activity was determined using a luciferase assay kit (Promega). Light emission was measured in a Veritas microplate luminometer (Turner Biosystems). Luciferase relative light units were normalized against protein concentrations. Sigmoidal dose-response curves were fit to the experimental data which generated basal induction (bottom), maximal induction (top-bottom), fold-induction (top/bottom), and log EC50.

[2] = biological target: T2, GRdim; test: Promoter-reporter transactivation (pTAT-GRE2-E1b-luc) in COS-1 cells, GRdim; format: cell-based
Experimental: as §1

[3] = biological target: GRwt; details: COS-1 cells transiently transfected with high levels of GRwt; cited from earlier work
[4] = biological target: T3, Flag-tagged human glucocorticoid …; test: co-IP; medium or high GR levels co-transfected in COS-1 cells; cells treated 1 h with vehicle (ethanol) or 10^-6 M DEX; 200 µg lysate protein on anti-FLAG M2 affinity gel beads, 16 h at 4°C, Buffer A with 2.5% casein; immunoblot with anti-GR; GFP-GR pull-down normalized to Flag-GR; details: partners not purified
[5] = biological target: T3, Flag-tagged human glucocorticoid …; test: co-IP; low GR levels co-transfected in COS-1 cells; cells treated 1 h with vehicle (ethanol), 10^-6 M DEX or 10^-5 M CpdA; 600 µg lysate protein on anti-FLAG M2 affinity gel beads, 16 h at 4°C, Buffer A with 2.5% casein; immunoblot with anti-GR; GFP-GR pull-down normalized to Flag-GR; details: partners not purified

| Maximal induction (RLU/mg protein) ([1]; GRwt concentration Low) | Maximal induction (RLU/mg protein) ([1]; GRwt concentration Medium) | Molecule | Maximal induction (RLU/mg protein) ([2]; GRdim concentration Low) | Maximal induction (RLU/mg protein) ([2]; GRdim concentration Medium) | further results |
| --- | --- | --- | --- | --- | --- |
|  |  | C[C@@H]1C[C@H]2[C@@H]3CCC4=CC(=O)C=C[C@]4(C)[C@@]3(F)[C@@H](O)C[C@]2(C)[C@@]1(O)C(=O)CO [DEX, Dexamethasone] |  |  | Kd [3]: 12.6 nM |
| 2.8 x 10^4 ± 7.2 x 10^3 RLU/mg protein | 8.8 x 10^4 ± 6 x 10^3 RLU/mg protein | C[C@]12CCC(=O)C=C1CC[C@@H]1[C@@H]2[C@@H](O)C[C@@]2(C)[C@H]1CC[C@]2(O)C(=O)CO [F, cortisol] | 3.7 x 10^4± 8.3 x 10^3 RLU/mg protein | 2.2 x 10^5 ± 5.7 x 10^4 RLU/mg protein |  |
| 3.5 x 10^4 ± 8.3 x 10^3 RLU/mg protein | 1.5 x 10^5 ± 2.3 x 10^4 RLU/mg protein | CC(=O)O[C@]1(C(C)=O)CC[C@H]2[C@@H]3C[C@H](C)C4=CC(=O)CC[C@]4(C)[C@H]3CC[C@@]21C [MPA, medroxyprogesterone acetate] |  |  | EC50 ([1]; GRwt concentration Low, pTAT-GRE2-Elb-luc, 24h): 23.4 nM; EC50 ([1]; GRwt concentration Medium): 8.71 nM |
|  |  | GFP-tagged dimerization-deficient glucocorticoid receptor (pEGFP-C2-GRA477T, carrying the GRdim sequence from pHisGRA458T) (receptor, human, UniProt P04150 1-777, looked up, the plasmid's name says A477T, the text A458T; also called GFP-GRdim; source: COS-1, transiently transfected (DEAE-dextran), in lysate) MDSKESLTPGREENPSSVLAQERGDVMDFYKTLRGGATVKVSASSPSLAVASQSDSKQRRLLVDFPKGSVSNAQQPDLSKAVSLSMGLYMGETETKVMGNDLGFPQQGQISLSSGETDLKLLEESIANLNRSTSVPENPKSSASTAVSAAPTEKEFPKTHSDVSSEQQHLKGQTGTNGGNVKLYTTDQSTFDILQDLEFSSGSPGKETNESPWRSDLLIDENCLLSPLAGEDDSFLLEGNSNEDCKPLILPDTKPKIKDNGDLVLSSPSNVTLPQVKTEKEDFIELCTPGVIKQEKLGTVYCQASFPGANIIGNKMSAISVHGVSTSGGQMYHYDMNTASLSQQQDQKPIFNVIPPIPVGSENWNRCQGSGDDNLTSLGTLNFPGRTVFSNGYSSPSMRPDVSSPPSSSSTATTGPPPKLCLVCSDEASGCHYGVLTCGSCKVFFKRAVEGQHNYLCTGRNDCIIDKIRRKNCPACRYRKCLQAGMNLEARKTKKKIKGIQQATTGVSQETSENPGNKTIVPATLPQLTPTLVSLLEVIEPEVLYAGYDSSVPDSTWRIMTTLNMLGGRQVIAAVKWAKAIPGFRNLHLDDQMTLLQYSWMFLMAFALGWRSYRQSSANLLCFAPDLIINEQRMTLPCMYDQCKHMLYVSSELHRLQVSYEEYLCMKTLLLLSSVPKDGLKSQELFDEIRMTYIKELGKAIVKREGNSSQNWQRFYQLTKLLDSMHEVVENLLNYCFQTFLDKTMSIEFPEMLAEIITNQIPKYSNGNIKKLLFHQK |  |  | GFP-GR pull-down after ethanol, relative to DEX-induced GRwt set at 100 percent (high GR level) [4]: 36 to 66%; GFP-GR pull-down after ethanol, relative to DEX-induced GRwt set at 100 percent (low GR level) [5]: 36 to 66% |

| Molecule | Maximal induction (RLU/mg protein) ([1]; GRwt concentration Low) | Maximal induction (RLU/mg protein) ([1]; GRwt concentration Medium) | Maximal induction (RLU/mg protein) ([2]; GRdim concentration Low) | Maximal induction (RLU/mg protein) ([2]; GRdim concentration Medium) | further results |
| --- | --- | --- | --- | --- | --- |
| CC#C[C@]1(O)CC[C@H]2[C@@H]3CCC4=CC(=O)CCC4=C3[C@@H](c3ccc(N(C)C)cc3)C[C@@]21C [RU486, mifepristone] | 1.8 x 10^4 ± 3.7 x 10^3 RLU/mg protein | 6.4 x 10^4 ± 7.5 x 10^3 RLU/mg protein | 7.1 x 10^4 ± 8.7 x 10^3 RLU/mg protein | 4.0 x 10^5 ± 7.8 x 10^4 RLU/mg protein |  |
